Columns and labels:
A. niger = experiment: Agar plate test: diameter of the A. niger growth ring after contact with biocide matrix; format: cell-based; settings: for A. niger diameters (cm), 3 days: day 3; for A. niger diameters (cm), 7 days: day 7; for A. niger diameters (cm), 14 days: day 14; for A. niger diameters (cm), 21 days: day 21; for A. niger diameters (cm), 28 days: day 28
Method: Samples of the prepared materials were dispersed in hot (˜45° C.) agar, under stirring. […] Pure DBNPA and commercial biocide (OTW) were used as standards. All the results were duplicated to assure accuracy.

[1] = room temperature; cited from earlier work
[2] = 300 ppm in agar (column DBNPA in agar, ppm), inoculum plug ID 1 cm
[3] = 300 ppm in agar, inoculum plug ID 1 cm

Compound | A. niger diameters (cm), 3 days (A. niger; [2]) [cm] | A. niger diameters (cm), 7 days (A. niger; [3]) [cm] | A. niger diameters (cm), 14 days (A. niger; [3]) [cm] | A. niger diameters (cm), 21 days (A. niger; [3]) [cm] | A. niger diameters (cm), 28 days (A. niger; [3]) [cm] | time to loss of activity by decomposition in aqueous media [1] [days] | concentration at which activity is demonstrated (A. niger) [ppm] | time over which activity is lost (A. niger; 300 ppm DBNPA) [days] | A. niger diameters (cm), 3 days (A. niger; 1000 ppm DBNPA in agar) [cm] | A. niger diameters (cm), 7 days (A. niger; 1000 ppm DBNPA in agar) [cm] | A. niger diameters (cm), 14 days (A. niger; 1000 ppm DBNPA in agar) [cm] | A. niger diameters (cm), 21 days (A. niger; 1000 ppm DBNPA in agar) [cm] | A. niger diameters (cm), 28 days (A. niger; 1000 ppm DBNPA in agar) [cm]
CCCCCCCCn1sccc1=O [OTW neat, N-octylisothiazolinone] | 1 | 1 | 1 | 1 | 1 |  |  |  |  |  |  |  | 
N#CC(Br)(Br)C(N)=O [DBNPA, 2,2-dibromo-3-nitrilopropionamide] | 3.7 | 10 | 10 | 10 | 10 | 2 to 3 | > 1000 | 3 | 1 | 1 | 1 | 1 | 1
